Laboratory results: PMC2715142 (Lipids, 2008)
Read-outs that look alike come from different tables or passages of the source.

Key:
Trypanosoma cruzi [1] = experiment: TC cellular growth inhibition; format: cell-based
TCCYP51 [2] = target: T1, TCCYP51 (Trypanosoma cruzi, UniProt Q7Z1V1); format: binding; conditions: for spectral response: TCCYP51
TBCYP51 = TBCYP51 (Trypanosoma brucei brucei, UniProt Q385E8); format: binding
[3] = system: TC infected cardiomyoblasts; experiment: inhibition of TC multiplication within cardiomyoblasts; format: cell-based, Trypanosoma cruzi; conditions: 30 µM
Trypanosoma brucei = experiment: TB cellular growth inhibition; format: cell-based; conditions: read-out: EC50 / 50% cell growth inhibition for TB, form not stated
I105F mutant of TCCYP51 = I105F mutant of TCCYP51 (Trypanosoma cruzi, UniProt Q7Z1V1, I105F); format: binding
TCCYP51 [4] = target: T1, TCCYP51; conditions: cited from earlier work
TCCYP51 [5] = target: T1, TCCYP51; conditions: cited from earlier work; remark: listed apart in the source
Trypanosoma cruzi [6] = conditions: read-out: published EC50 values in TC cells; cited from earlier work
TCCYP51 [7] = target: T1, TCCYP51; format: biochemical; conditions: T. cruzi CYP51, initial rate

32-Methylene cyclopropyl-lanost-7-enol [MCP]
EC50 (Trypanosoma cruzi [1]; read-out: 50% cell growth inhibition of TC, TC, form not stated): 3000 nM | spectral response (TCCYP51 [2]): type 1 spectral responses | high spin content (low to high spin transition in the heme iron) (TCCYP51 [2]; TCCYP51, maximal upon titration): 41% | spectral response (TBCYP51; TBCYP51): type 1 spectral responses | high spin content (low to high spin transition in the heme iron) (TBCYP51; TBCYP51, maximal upon titration): 85% | parasite cells cleared from TC infected cardiomyoblasts [3]: more than 90% | number of intracellular parasites ([3]; 72 h, trypanosomes pre-incubated with compound): dramatic decrease in the number of intracellular parasites | EC50 (Trypanosoma brucei): > 50 µM | high spin form (I105F mutant of TCCYP51): 87% | spectral response (I105F mutant of TCCYP51): type 1 spectral responses

CC(C)CCC[C@@H](C)[C@H]1CC[C@@]2(CN)C3=CCC4C(C)(C)[C@@H](O)CC[C@]4(C)[C@H]3CC[C@]12C (stereo partly drawn) [AL7, 4,4-dimethyl-14α-aminomethyl-cholest-7-en-3β-ol]
spectral response (TCCYP51 [4]): type 2 spectral responses | I/E2 for the initial rate of TCCYP51 catalysis (TCCYP51 [5]): 11

CC(C)CCC[C@@H](C)[C@H]1CC[C@@]2(CN)C3=C(CC[C@]12C)[C@@]1(C)CC[C@H](O)C(C)(C)C1CC3 (stereo partly drawn) [AL8, 4,4-dimethyl-14α-aminomethyl-cholest-8-en-3β-ol]
spectral response (TCCYP51 [4]): type 2 spectral responses | I/E2 for the initial rate of TCCYP51 catalysis (TCCYP51 [5]): 14

O=C(NC(Cn1ccnc1)c1ccccc1)c1ccc(-c2ccc(Cl)cc2)cc1 (stereo not shown) [SDZ285604]
EC50 (Trypanosoma cruzi [1]; read-out: EC50 (50% cellular growth inhibition), amastigotes (intracellular form) of TC): < 1000 nM | EC50 (Trypanosoma cruzi [1]; read-out: EC50 (50% cellular growth inhibition), trypomastigotes (extracellular form) of TC): < 1000 nM

O=C(Cn1ccnc1[N+](=O)[O-])NCc1ccccc1 [benznidazole]
EC50 (Trypanosoma cruzi [6]): 25 to 50 µM | spectral response (TCCYP51 [2]): does not induce spectral changes | I/E2 (5 min), molar ratio inhibitor/enzyme which causes a twofold decrease in the activity (TCCYP51 [7]): 42
